According to patent US7569601B2, “Cycloalkylidene compounds as modulators of estrogen receptor” (SmithKline Beecham Corporation, priority 2003, dated 2009):

Compound `CC1(C)CC(=C(c2ccc(O)cc2)c2ccc(CCO)cc2)CC(C)(C)C1` [Example 92, 4-[[4-(2-Hydroxyethyl)phenyl](3,3,5,5-tetramethylcyclohexylidene)methyl]phenol] has a melting point of 159 to 160 °C.

Compound `N#Cc1ccc(C(=C2CCCCCC2)c2ccc(O)cc2)cc1` [Example 77, 4-[cycloheptylidene(4-hydroxyphenyl)methyl]benzonitrile] has a melting point of 110 to 111 °C.

`CC1(C)CC(=C(c2ccc(/C=C/C(=O)O)cc2)c2ccc(O)c(Cl)c2)CC(C)(C)C1` [Example 43, (2E)-3-{4-[(3-Chloro-4-hydroxyphenyl)(3,3,5,5-tetramethylcyclohexylidene)methyl]phenyl}-2-propenoic acid] gave a melting point of 111 to 114 °C.

Compound `CC1(C)CC(=C(c2ccc(/C=C/C(=O)O)cc2)c2ccc(O)c(Cl)c2)CC(C)(C)O1` [Example 44, (2E)-3-{4-[(3-Chloro-4-hydroxyphenyl)(2,2,6,6-tetramethyltetrahydro-4H-pyran-4-ylidene)methyl]phenyl}-2-propenoic acid] has a melting point of 118 to 121 °C.

For `O=C(O)COc1ccc(C(=C2CCCCCC2)c2ccc(O)cc2)cc1` [Example 68, ({4-[Cycloheptylidene(4-hydroxyphenyl)methyl]phenyl}oxy)acetic acid], the melting point was 170 to 171 °C.

With `CC1(C)CC(=C(c2ccc(O)cc2)c2ccc(OCC(=O)O)cc2)CC(C)(C)C1` [Example 83, ({4-[(4-Hydroxyphenyl)(3,3,5,5-tetramethylcyclohexylidene)methyl]phenyl}oxy)acetic acid] the melting point was 163 to 164 °C.

With `CC1(C)CC(=C(c2ccc(O)cc2)c2ccc(CC(=O)O)cc2)CC(C)(C)C1` [Example 51, {4-[(4-Hydroxyphenyl)(3,3,5,5-tetramethylcyclohexylidene)methyl]phenyl}acetic acid] the melting point was 220 to 221 °C.

`CC1(C)CC(=C(c2ccc(O)cc2)c2ccc(-c3ccccc3C(=O)O)cc2)CC(C)(C)C1` [Example 107, 4′-[(4-Hydroxyphenyl)(3,3,5,5-tetramethylcyclohexylidene)methyl]-2-biphenylcarboxylic acid] showed a melting point of 230 to 231 °C.

Compound `CC1(C)CC(=C(c2ccc(/C=C/C(=O)O)cc2)c2ccc(O)c(F)c2)CC(C)(C)C1` [Example 47, (2E)-3-{4-[(3-fluoro-4-hydroxyphenyl)(3,3,5,5-tetramethylcyclohexylidene)methyl]phenyl}-2-propenoic acid] has a melting point of 193 to 195 °C.

In the case of `CC1(C)CC(=C(c2ccc(O)cc2)c2ccc(C#CCO)cc2)CC(C)(C)C1` [Example 48, 4-[[4-(3-hydroxy-1-propyn-1-yl)phenyl](3,3,5,5-tetramethylcyclohexylidene)methyl]phenol], the melting point was 141 to 142 °C.

`CC1(C)CC(=C(c2ccc(/C=C/C(=O)O)cc2)c2ccc(O)c(F)c2)CC(C)(C)O1` [Example 46, (2E)-3-{4-[(3-fluoro-4-hydroxyphenyl)(2,2,6,6-tetramethyltetrahydro-4H-pyran-4-ylidene)methyl]phenyl}-2-propenoic acid] gave a melting point of 125 to 128 °C.

Compound `CC1(C)CC(=C(c2ccc(O)cc2)c2ccc(C#CCCC(=O)O)cc2)CC(C)(C)C1` [Example 103, 5-{4-[(4-Hydroxyphenyl)(3,3,5,5-tetramethylcyclohexylidene)methyl]phenyl}-4-pentynoic acid] has a melting point of 233 to 234 °C.

`CC1(C)CC(=C(c2ccc(O)cc2)c2ccc(OCCOCCO)cc2)CC(C)(C)C1` [Example 23, 4-[[4-({2-[(2-Hydroxyethyl)oxy]ethyl}oxy)phenyl](3,3,5,5-tetramethylcyclohexylidene)methyl]phenol] gave a melting point of 122 to 124 °C.

With `CC1(C)CC(=C(c2ccc(O)cc2)c2ccc(-c3ccccc3CO)cc2)CC(C)(C)C1` [Example 108, 4-[[2′-(Hydroxymethyl)-4-biphenylyl](3,3,5,5-tetramethylcyclohexylidene)methyl]phenol] the melting point was 171 to 172 °C.

`CC1(C)CC(=C(c2ccc(O)cc2)c2ccc(OCCO)cc2)CC(C)(C)C1` [Example 32, 4-[{4-[(2-Hydroxyethyl)oxy]phenyl}(3,3,5,5-tetramethylcyclohexylidene)methyl]phenol] gave a melting point of 154 to 155 °C.

For `CC1(C)CC(=C(c2ccc(O)cc2)c2ccc(OCCCC(=O)O)cc2)CC(C)(C)C1` [Example 84, 4-({4-[(4-hydroxyphenyl)(3,3,5,5-tetramethylcyclohexylidene)methyl]phenyl}oxy)butanoic acid], the melting point was 203 to 204 °C.

`CC1(C)CC(=C(c2ccc(O)cc2)c2ccc(CCCO)cc2)CC(C)(C)C1` [Example 93, 4-[[4-(3-Hydroxypropyl)phenyl](3,3,5,5-tetramethylcyclohexylidene)methyl]phenol] showed a melting point of 160 to 161 °C.

With `O=C(O)/C=C/c1ccc(C(=C2CCCCCC2)c2ccc(O)c(Cl)c2)cc1` [Example 42, (2E)-3-{4-[(3-Chloro-4-hydroxyphenyl)(cycloheptylidene)methyl]phenyl}-2-propenoic acid] the melting point was 155 to 156 °C.

In the case of `CC1(C)CC(=C(c2ccc(O)cc2)c2ccc(/C=C/C(=O)O)cc2)CC(C)(C)C1` [Example 6, (2E)-3-{4-[(4-Hydroxyphenyl)(3,3,5,5-tetramethylcyclohexylidene)methyl]phenyl}-2-propenoic acid], the melting point was 219 to 220 °C.

Work on `CC(C)(O)C#Cc1ccc(C(=C2CC(C)(C)CC(C)(C)C2)c2ccc(O)cc2)cc1` [Example 101, 4-[[4-(3-hydroxy-3-methyl-1-butyn-1-yl)phenyl](3,3,5,5-tetramethylcyclohexylidene)methyl]phenol] yielded a melting point of 186 to 187 °C.

In the case of `CC(=O)Nc1ccc(C(=C2CC(C)(C)CC(C)(C)C2)c2ccc(O)cc2)cc1` [Example 21, N-{4-[(4-hydroxyphenyl)(3,3,5,5-tetramethylcyclohexylidene)methyl]phenyl}acetamide], the melting point was 118 to 121 °C.

In the case of `CC(=O)c1ccc(C(=C2CC(C)(C)CC(C)(C)C2)c2ccc(O)cc2)cc1` [Example 104, 1-{4-[(4-Hydroxyphenyl)(3,3,5,5-tetramethylcyclohexylidene)methyl]phenyl}ethanone], the melting point was 195 to 196 °C.

With `CC1(C)CC(=C(c2ccc(O)cc2)c2ccc(-c3cccc(CO)c3)cc2)CC(C)(C)C1` [Example 106, 4-[[3′-(Hydroxymethyl)-4-biphenylyl](3,3,5,5-tetramethylcyclohexylidene)methyl]phenol] the melting point was 197 to 198 °C.

Work on `CC1(C)CC(=C(c2ccc(O)cc2)c2ccc(S(C)(=O)=O)cc2)CC(C)(C)C1` [Example 30, 4-[[4-(Methylsulfonyl)phenyl](3,3,5,5 tetramethylcyclohexylidene)methyl]phenol] yielded a melting point of 149 to 150 °C.

Compound `CC1(C)CC(=C(c2ccc(O)cc2)c2ccc(CCC(=O)O)cc2)CC(C)(C)C1` [Example 61, 3-{4-[(4-Hydroxyphenyl)(3,3,5,5-tetramethylcyclohexylidene)methyl]phenyl}propanoic acid] has a melting point of 243 to 244 °C.

Work on `OCCCC#Cc1ccc(C(=C2CCCCCC2)c2ccc(O)cc2)cc1` [Example 100, 4-{Cycloheptylidene[4-(5-hydroxy-1-pentyn-1-yl)phenyl]methyl}phenol] yielded a melting point of 125 to 126 °C.

`CC1(C)CC(=C(c2ccc(O)cc2)c2ccc(-c3ccoc3)cc2)CC(C)(C)C1` [Example 94, 4-[[4-(3-furanyl)phenyl](3,3,5,5-tetramethylcyclohexylidene)methyl]phenol] gave a melting point of 128 to 129 °C.

`O=C(O)/C=C/c1ccc(C(=C2CCCCCC2)c2ccc(O)c(F)c2)cc1` [Example 45, (2E)-3-{4-[(3-fluoro-4-hydroxyphenyl)(cycloheptylidene)methyl]phenyl}-2-propenoic acid] gave a melting point of 164 to 165 °C.

In the case of `CC1(C)CC(=C(c2ccc(O)cc2)c2ccc(C(N)=O)cc2)CC(C)(C)C1` [Example 31, 4-[(4-hydroxyphenyl)(3,3,5,5-tetramethylcyclohexylidene)methyl]benzamide], the melting point was 209 to 210 °C.

Work on `CC1(C)CC(=C(c2ccc(O)cc2)c2ccc(CO)cc2)CC(C)(C)C1` [Example 91, 4-[[4-(Hydroxymethyl)phenyl](3,3,5,5-tetramethylcyclohexylidene)methyl]phenol] yielded a melting point of 134 to 135 °C.

In the case of `C#Cc1ccc(C(=C2CC(C)(C)CC(C)(C)C2)c2ccc(O)cc2)cc1` [Example 49, 4-[(4-Ethynylphenyl)(3,3,5,5-tetramethylcyclohexylidene)methyl]phenol], the melting point was 138 to 139 °C.

In the case of `CC1(C)CC(=C(c2ccc(O)cc2)c2ccc(C#CCCO)cc2)CC(C)(C)C1` [Example 102, 4-[[4-(4-hydroxy-1-butyn-1-yl)phenyl](3,3,5,5-tetramethylcyclohexylidene)methyl]phenol], the melting point was 183 to 184 °C.

`CC1(C)CC(=C(c2ccc(O)cc2)c2ccc(-c3ccc(CO)cc3)cc2)CC(C)(C)C1` [Example 105, 4-[[4′-(Hydroxymethyl)-4-biphenylyl](3,3,5,5-tetramethylcyclohexylidene)methyl]phenol] showed a melting point of 222 to 223 °C.
